Laboratory results as given in patent publication US11274091B2 (Dizal (Jiangsu) Pharmaceutical Co., Ltd., priority 2018, dated 2022).

Experiments:
human TRPC6 ion channel = human TRPC6 ion channel (Homo sapiens (Human), UniProt Q9Y210); assay: Inhibition of TRPC6 FLIPR Assay (membrane potential dye, OAG challenge); type: cell-based; details: TRPC6-HEK293 cells, OAG at EC80; most potent isolated isomer; mean of minimum 2 experiments
Source text: (§1) TRPC3 and TRPC6 channel opening causes an influx of predominantly calcium and sodium cations that result in a change in the electrical potential across the cell membrane. This change in membrane potential can be monitored using membrane potential dyes in the following FLIPR™ (Fluorescent Imaging Plate Reader) assays.
TRPC6-HEK293 was purchased from PerkinElmer (PerkinElmer, Product No.: AX-012-C), HEK293 cells were transfected using the pcDNA3.1(+)expression vector containing the coding sequence of the human TRPC6 ion channel. The coding sequence used is identical to coding sequence of GenBank NM_004621 with the exception of 2 synonym variations (t1683c and c2529t). The cells were grown in DMEM+10% fetal bovine serum (FBS) 0.5 mg/ml. Geneticin (ion channel expression selection) as culture medium.
TRPC6 cells were plated at 10K cells/well into 384-well polystyrene plates and then grown for 24 hs at 37° C. plus 5% CO2. After this time the media was aspirated using a Tecan plate washer and then replaced with 40 μL of dye loading buffer (130 mM NaCl, 5 mM KCl, 0.15 mM CaCl2, 1 mM MgCl2, 20 mM HEPES ((4-(2-hydroxyethyl)-1-piperazineethanesulfonic acid)), 5 mM NaHCO3). For TRPC6, a final concentration of 0.5× is used. Cells with membrane potential dye were then incubated for 30 mins at room temperature prior to beginning the experiments.
(§2) To test the effects of compounds on TRPC6 activity, compounds were first diluted in 100% DMSO to 3× the final concentration to be used in the experiments. Typical dose-response experiments ranged from 10 μM (top concentration) to 0.5 nM (lowest concentration). Ten microliters of 0.5× compound in 0.5% DMSO were added to 40 μL of cells incubated with membrane potential dye. Compound addition was performed on a FLIPRTetra or a FLIPR 384 (MDS Analytical Technologies, Molecular Devices, Sunnyvale, Calif., 94089, USA). After a 400 second incubation with compound, 12.5 of OAG (1-oleoyl-2-acetyl-sn-glycerol (OAG), Sigma, Gillingham, Dorset, SP8 4XT Cat #O6754-10 MG) was added at 5× the EC80 (typical EC80 for TRPC6=3 μM final). The OAG challenge is designed to measure the inhibitory activity of compounds on receptor-operated TRPC6 activation.
(§3) All data was normalized to low controls (buffer alone) or high controls (OAG EC100). Data was analyzed using an XC50 curve fitting module and reported as pIC50 or IC50 values. The values are averaged to determine a mean value, for a minimum of 2 experiments.

human TRPC3 ion channel = human TRPC3 ion channel (Homo sapiens (Human), UniProt Q13507); assay: Inhibition of TRPC3 FLIPR Assay (membrane potential dye, OAG challenge); type: cell-based; details: TRPC3 transfected AD293 cells, OAG at EC80; most potent isolated isomer; mean of minimum 2 experiments
Source text: as §1
AD293 cells were transfected using the PLVX-puro lentivirus vector containing the coding sequence of the human TRPC3 ion channel. Puromycin-resistant cells were selected by treating with […] puromycin for two weeks. Monoclonal cells were obtained by limiting dilution and compared for their response to OAG in a membrane potential assay. The cells were grown in DMEM+10% fetal bovine serum (FBS)+1 μg/mL puromycin as culture medium.
TRPC3 cells were plated at 9K/well into 384-well polystyrene plates. Cells were grown for 24 h at 37° C. plus 5% CO2 after which media was aspirated using a Tecan plate washer and replaced with 40 μL of dye loading buffer (130 mM NaCl, 5 mM KCl, 0.15 mM CaCl2, 1 mM MgCl2, 20 mM HEPES ((4-(2-hydroxyethyl)-1-piperazineethanesulfonic acid)), 5 mM NaHCO3). For TRPC3 a final concentration of 0.5× membrane potential dye (Molecular Devices Membrane Blue, FLIPR Membrane Potential Assay Kit (bulk), Product #R8034(BLUE), Molecular Devices, Sunnyvale, Calif., 94089, USA) was used. Cells with membrane potential dye were then incubated for 30 mins at room temperature prior to beginning the experiments.
as §2, with “TRPC3” for “TRPC6”, “5×” for “0.5×”, “Technologies).” for “Technologies, Molecular Devices, Sunnyvale, Calif., 94089, USA).”, “12.5 μL” for “12.5”, “OAG” for “OAG (1-oleoyl-2-acetyl-sn-glycerol (OAG), Sigma, Gillingham, Dorset, SP8 4XT Cat #O6754-10 MG)”, “TRPC3=2” for “TRPC6=3”
as §3

human TRPC6 ion channel, sequence (Q9Y210 whole entry): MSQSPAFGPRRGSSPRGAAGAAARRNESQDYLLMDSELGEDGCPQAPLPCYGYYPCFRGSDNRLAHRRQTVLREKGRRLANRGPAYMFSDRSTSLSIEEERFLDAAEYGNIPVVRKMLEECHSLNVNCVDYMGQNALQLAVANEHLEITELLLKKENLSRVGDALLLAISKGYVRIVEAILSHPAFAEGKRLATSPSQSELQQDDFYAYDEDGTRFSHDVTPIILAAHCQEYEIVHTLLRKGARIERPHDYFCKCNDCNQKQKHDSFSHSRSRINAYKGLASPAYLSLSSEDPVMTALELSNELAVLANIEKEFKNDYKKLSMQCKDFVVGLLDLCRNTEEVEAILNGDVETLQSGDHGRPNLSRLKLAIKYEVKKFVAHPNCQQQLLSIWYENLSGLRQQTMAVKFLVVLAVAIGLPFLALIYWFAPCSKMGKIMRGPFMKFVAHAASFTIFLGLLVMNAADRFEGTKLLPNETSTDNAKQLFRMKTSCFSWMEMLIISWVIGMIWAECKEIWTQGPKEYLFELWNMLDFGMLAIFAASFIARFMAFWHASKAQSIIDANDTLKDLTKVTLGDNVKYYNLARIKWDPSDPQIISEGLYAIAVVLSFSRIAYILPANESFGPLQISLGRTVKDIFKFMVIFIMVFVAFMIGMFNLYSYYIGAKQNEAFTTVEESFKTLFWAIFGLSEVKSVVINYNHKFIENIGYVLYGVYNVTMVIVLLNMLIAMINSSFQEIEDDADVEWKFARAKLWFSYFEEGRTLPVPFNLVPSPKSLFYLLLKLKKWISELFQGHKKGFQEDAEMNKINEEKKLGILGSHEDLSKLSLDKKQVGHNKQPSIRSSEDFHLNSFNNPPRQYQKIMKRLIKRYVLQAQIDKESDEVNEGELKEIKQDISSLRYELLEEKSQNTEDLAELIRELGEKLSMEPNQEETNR
human TRPC3 ion channel, sequence (Q13507 whole entry): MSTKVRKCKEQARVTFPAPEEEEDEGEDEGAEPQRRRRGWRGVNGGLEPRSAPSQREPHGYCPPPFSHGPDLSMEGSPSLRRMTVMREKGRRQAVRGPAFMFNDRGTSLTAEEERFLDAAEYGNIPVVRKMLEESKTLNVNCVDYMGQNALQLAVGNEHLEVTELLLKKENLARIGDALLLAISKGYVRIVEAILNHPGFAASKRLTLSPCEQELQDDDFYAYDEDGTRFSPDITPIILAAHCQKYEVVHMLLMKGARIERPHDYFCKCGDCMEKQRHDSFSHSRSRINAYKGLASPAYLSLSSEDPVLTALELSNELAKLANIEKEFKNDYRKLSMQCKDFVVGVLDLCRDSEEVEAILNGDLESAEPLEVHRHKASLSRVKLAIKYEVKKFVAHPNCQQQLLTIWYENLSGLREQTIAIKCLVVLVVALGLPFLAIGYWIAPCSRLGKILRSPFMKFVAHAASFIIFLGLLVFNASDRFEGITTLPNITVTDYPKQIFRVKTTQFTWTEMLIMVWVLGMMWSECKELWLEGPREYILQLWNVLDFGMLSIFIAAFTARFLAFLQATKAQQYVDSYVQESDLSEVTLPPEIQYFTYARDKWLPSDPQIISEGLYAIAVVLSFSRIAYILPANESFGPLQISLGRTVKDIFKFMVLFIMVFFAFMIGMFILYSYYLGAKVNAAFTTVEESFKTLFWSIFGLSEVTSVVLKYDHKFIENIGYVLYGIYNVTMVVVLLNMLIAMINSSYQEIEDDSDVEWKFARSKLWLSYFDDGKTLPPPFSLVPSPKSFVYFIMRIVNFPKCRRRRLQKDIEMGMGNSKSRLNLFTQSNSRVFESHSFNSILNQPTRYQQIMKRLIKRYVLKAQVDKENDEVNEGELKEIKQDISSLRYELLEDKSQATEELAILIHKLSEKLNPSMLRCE

Compound	IC50 (human TRPC6 ion channel) [nM]	IC50 (human TRPC3 ion channel) [nM]
N#Cc1ccc(OC2CC(c3ccc(F)cc3)CC2N2CCC[C@@H](N)C2)nc1 (single isomer, unassigned) [Example 26]	9.51	25.5
NC1CCCN(C2CC(c3ccc(F)cc3)CC2n2nccn2)C1 (stereo not drawn) [Example 1, 1-[4-(4-fluorophenyl)-2-(triazol-2-yl)cyclopentyl]piperidin-3-amine]	3.37	17.7
N[C@@H]1C[C@@H](F)CN([C@@H]2C[C@H](c3ccc(F)cc3)C[C@H]2n2cncn2)C1 [Example 10, (3R,5R)-5-fluoro-1-[(1R,2R,4S)-4-(4-fluorophenyl)-2-(1,2,4-triazol-1-yl)cyclopentyl]piperidin-3-amine]	29.8	16
NC1CCCN(C2CC(c3ccc(F)cc3)CC2n2ncnn2)C1 (stereo not drawn) [Example 12, 1-[4-(4-fluorophenyl)-2-(tetrazol-2-yl)cyclopentyl]piperidin-3-amine]	26.7	7.55
N#Cc1ccc(OC2CC(c3ccc(F)c(O)c3)CC2N2CCCC(N)C2)cc1 (stereo not drawn) [Example 14, 4-[2-(3-amino-1-piperidyl)-4-(4-fluoro-3-hydroxy-phenyl)cyclopentoxy]benzonitrile]	17.4	58.8
COc1cc(C2CC(Oc3ccc(C#N)cc3)C(N3CCCC(N)C3)C2)ccc1F (stereo not drawn) [Example 15, 4-[2-(3-amino-1-piperidyl)-4-(4-fluoro-3-methoxy-phenyl)cyclopentoxy]benzonitrile]	9.51	22.5
N#Cc1ccc(OC2CC(c3cccc(F)c3)CC2N2CCCC(N)C2)c(Cl)c1 (stereo not drawn) [Example 16, 4-[2-(3-amino-1-piperidyl)-4-(3-fluorophenyl)cyclopentoxy]-3-chloro-benzonitrile]	19.3	69.5
N#Cc1ccc(OC2CC(c3ccc(F)cc3)CC2N2CCC(F)(F)C(N)C2)cc1 (stereo not drawn) [Example 17, 4-[2-(3-amino-4,4-difluoro-1-piperidyl)-4-(4-fluorophenyl)cyclopentoxy]benzonitrile]	20.7	46.1
N#Cc1ccc(OC2CC(c3ccc(F)cc3)CC2N2CC(N)CC(F)(F)C2)cc1 (stereo not drawn) [Example 18, 4-[2-(5-amino-3,3-difluoro-1-piperidyl)-4-(4-fluorophenyl)cyclopentoxy]benzonitrile]	31.1	42.5
N#Cc1ccc(OC2CC(c3ccc(F)cc3)CC2N2CCCC(N)C2)cc1F (stereo not drawn) [Example 19, 4-[2-(3-amino-1-piperidyl)-4-(4-fluorophenyl)cyclopentoxy]-2-fluoro-benzonitrile]	25.1	64.5
N#Cc1ccccc1OC1CC(c2ccccc2)CC1N1CCCC(N)C1 (stereo not drawn) [Example 20, 2-[2-(3-amino-1-piperidyl)-4-phenyl-cyclopentoxy]benzonitrile]	14.1	38.8
N#Cc1ccc(OC2CC(c3ccccc3)CC2N2CCCC(N)C2)c(Cl)c1 (stereo not drawn) [Example 21, 4-[2-(3-amino-1-piperidyl)-4-phenyl-cyclopentoxy]-3-chloro-benzonitrile]	17.4	72.3
Cc1cc(C#N)nnc1OC1CC(c2ccc(F)cc2)CC1N1CC(N)CC(F)C1 (stereo not drawn) [Example 22, 6-[2-(3-amino-5-fluoro-1-piperidyl)-4-(4-fluorophenyl)cyclopentoxy]-5-methyl-pyridazine-3-carbonitrile]	28.8	118
N#Cc1ccc(OC2CC(c3ccc(F)cc3)CC2N2CC(N)CC(F)C2)nn1 (stereo not drawn) [Example 24, 6-[2-(3-amino-5-fluoro-1-piperidyl)-4-(4-fluorophenyl)cyclopentoxy]pyridazine-3-carbonitrile]	> 11.8	7.2
N[C@@H]1CCCN([C@H]2C[C@@H](c3ccc(F)cc3)C[C@@H]2Oc2cc(F)cnn2)C1 [Example 25, (R)-1-((1S,2S,4R)-4-(4-fluorophenyl)-2-(5-fluoropyridazin-3-yloxy)cyclopentyl)piperidin-3-amine]	9.93	209

Results, then the compound that gave them:

IC50 (human TRPC6 ion channel) [nM]	IC50 (human TRPC3 ion channel) [nM]	Compound
7.97	8.31	N#Cc1cnn(C2CC(c3ccc(F)cc3)CC2N2CCCC(N)C2)c1 (stereo not drawn) [Example 2, 1-[2-(3-amino-1-piperidyl)-4-(4-fluorophenyl)cyclopentyl]pyrazole-4-carbonitrile]
< 19.9	46.4	N#Cc1ccn(C2CC(c3ccc(F)cc3)CC2N2CCCC(N)C2)n1 (stereo not drawn) [Example 3, 1-[2-(3-amino-1-piperidyl)-4-(4-fluorophenyl)cyclopentyl]pyrazole-3-carbonitrile]
5.31	5.39	N#Cc1ccn(C2CC(c3ccc(F)cc3)CC2N2CCCC(N)C2)c1 (stereo not drawn) [Example 4, 1-[2-(3-amino-1-piperidyl)-4-(4-fluorophenyl)cyclopentyl]pyrrole-3-carbonitrile]
3.78	4.28	N#Cc1cn(C2CC(c3ccc(F)cc3)CC2N2CCCC(N)C2)nn1 (stereo not drawn) [Example 5, 1-[2-(3-amino-1-piperidyl)-4-(4-fluorophenyl)cyclopentyl]triazole-4-carbonitrile]
4.06	6.22	N#Cc1cnn(C2CC(c3ccc(F)cc3)CC2N2CC(N)CC(F)C2)c1 (stereo not drawn) [Example 6, 1-[2-(3-amino-5-fluoro-1-piperidyl)-4-(4-fluorophenyl)cyclopentyl]pyrazole-4-carbonitrile]
16.2	17.5	N#Cc1cnn(C2CC(c3ccc(F)cc3)CC2N2CCC(F)(F)C(N)C2)c1 (stereo not drawn) [Example 7, 1-[2-(3-amino-4,4-difluoro-1-piperidyl)-4-(4-fluorophenyl)cyclopentyl]pyrazole-4-carbonitrile]
2.8	7.97	NC1CCCN(C2CC(c3ccc(F)cc3)CC2n2cccn2)C1 (stereo not drawn) [Example 8, 1-[4-(4-fluorophenyl)-2-pyrazol-1-yl-cyclopentyl]piperidin-3-amine]
3.4	6.64	NC1CC(F)CN(C2CC(c3ccc(F)cc3)CC2n2cccn2)C1 (stereo not drawn) [Example 9, 5-fluoro-1-[4-(4-fluorophenyl)-2-pyrazol-1-yl-cyclopentyl]piperidin-3-amine]
10.6	4.03	NC1CC(F)CN(C2CC(c3ccc(F)cc3)CC2n2ncnn2)C1 (stereo not drawn) [Example 11, 5-fluoro-1-[4-(4-fluorophenyl)-2-(tetrazol-2-yl)cyclopentyl]piperidin-3-amine]
7.1	14.3	N#Cc1ncn(C2CC(c3ccc(F)cc3)CC2N2CCCC(N)C2)n1 (stereo not drawn) [Example 13, 1-[2-(3-amino-1-piperidyl)-4-(4-fluorophenyl)cyclopentyl]-1,2,4-triazole-3-carbonitrile]
6.56	11.3	NC1CCCN(C2CC(c3ccc(F)cc3)CC2Oc2nnccc2Cl)C1 (stereo not drawn) [Example 23, 1-[2-(4-chloropyridazin-3-yl)oxy-4-(4-fluorophenyl)cyclopentyl]piperidin-3-amine]
22	50.7	N#Cc1ccc(OC2CC(c3ccc(F)cc3)CC2N2CCCC(N)C2)cn1 (stereo not drawn) [Example 27]
